From US20260167615A1, “COMPOUNDS AND COMPOSITIONS AS GPR52 MODULATORS” (Neurocrine Biosciences, Inc., priority 2022, published 2026)
Read-outs that look alike come from different tables or passages of the source.

Molecular target: recombinant human GPR52 (Homo sapiens, UniProt Q9Y2T5)
Assay: HTRF cAMP assay, GPR52 activity (Example A)
Format: cell-based
Description: Compounds of Formula I were assessed for their ability to modulate GPR52 activity. HTRF CAMP assays were performed using a commercially available assay kit (CAMP Gs HiRange HTRF®, CisBio). Controls and compounds were solubilized in DMSO and 62.5 nanoliters of the diluted compounds were transferred into 384-well NBS assay plates via acoustic or precision low-volume dispensing. Compounds were further diluted to 1× with the addition of 20,000 cells per well. Flp-In™—CHO cells that stably express recombinant human GPR52 were used in the assay.
Cells were harvested with cell stripper and resuspended in stimulation buffer. After thirty minutes incubation at room temperature, detection reagents were added to each well. Plates were then incubated for an additional 30 minutes at room temperature. CAMP produced by the cells during the first incubation period competes with d2-labeled CAMP for binding to an anti-cAMP monoclonal antibody labeled with europium cryptate. The measured signal was inversely proportional to the concentration of cAMP produced by the cells and this signal was quantified using a PHERAstar® multi-mode plate reader.
Dose-response curves were generated from the HTRF counts that have been transformed based on a CAMP referenced curve, and then normalized to the positive control. EC50 values were obtained using a nonlinear regression curve-fitting program. […] The Emax (Table 13) is the maximum amount of cAMP (nM) produced by incubation of the cells with 10 μM or 31.6 μM of a test compound. The compound is defined by the top plateau of the sigmoid curve fit. The curve is then normalized to a control compound, in this case 4-(3-(3-fluoro-5-(trifluoromethyl)benzyl)-5-methyl-4,5-dihydro-1H-1,2,4-triazol-1-yl)-2-methylbenzamide (Tokumaru, K., et al., “Design, synthesis, and pharmacological evaluation of 4-azolyl-benzamide derivatives as novel GPR52 agonists”, Bioorganic & Medicinal Chemistry, Volume 25, Issue 12, June 2017, pages 3098-3115), and expressed as a percentage of the Emax of that control compound.

[1] = average EC50 (n=1 to 15), Flp-In-CHO cells stably expressing recombinant human GPR52, cAMP HTRF, read-out: EC50 (N=)
[2] = maximum cAMP at 10 μM or 31.6 μM test compound, as percentage of Emax of control compound 4-(3-(3-fluoro-5-(trifluoromethyl)benzyl)-5-methyl-4,5-dihydro-1H-1,2,4-triazol-1-yl)-2-methylbenzamide

recombinant human GPR52, sequence (Q9Y2T5 whole entry): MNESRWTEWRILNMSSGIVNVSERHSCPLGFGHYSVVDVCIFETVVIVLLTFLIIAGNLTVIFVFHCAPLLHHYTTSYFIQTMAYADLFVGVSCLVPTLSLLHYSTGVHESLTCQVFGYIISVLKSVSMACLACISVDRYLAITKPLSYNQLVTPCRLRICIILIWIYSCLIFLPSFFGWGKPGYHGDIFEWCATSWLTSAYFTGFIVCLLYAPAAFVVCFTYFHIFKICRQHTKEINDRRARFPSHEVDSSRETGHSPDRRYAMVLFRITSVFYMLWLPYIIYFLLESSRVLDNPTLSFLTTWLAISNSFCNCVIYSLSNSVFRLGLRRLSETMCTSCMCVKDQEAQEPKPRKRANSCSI

SMILES	EC50 [1] [nM]	Emax [2] [%]	EC50 (comparison of position of the nitrogen in the pyridine ring relative to the oxygen linker, read-out: Activity EC50) [nM]	EC50 (Flp-In-CHO cells expressing human GPR52, read-out: average EC50) [nM]	Emax (percentage of Emax of control compound) [%]
Cc1cc(-c2cc(Oc3cnc4c(c3)c(C)nn4C)ccn2)ccc1C(N)=O [Example 54, 4-(4-((1,3-dimethyl-1H-pyrazolo[3,4-b]pyridin-5-yl)oxy)pyridin-2-yl)-2-methylbenzamide]	101 to 1000	110			
Cc1cc(-c2cc(Oc3cnc4c(F)cc(F)cc4c3)ccn2)ccc1C(N)=O [Example 118, 4-(4-((6,8-difluoroquinolin-3-yl)oxy)pyridin-2-yl)-2-methylbenzamide]	101 to 1000	85			
NC(=O)c1ccc(-c2cc(Oc3ccc4ncccc4c3)ccn2)cc1Cl [Example 76, 2-chloro-4-(4-(quinolin-6-yloxy)pyridin-2-yl)benzamide]	101 to 1000	91			
CCc1cc(-c2cc(Oc3ccc4cnccc4c3)ccn2)ccc1C(N)=O [Example 71, 2-ethyl-4-(4-(isoquinolin-6-yloxy)pyridin-2-yl)benzamide]	25 to 100	107			
Cc1cc(-c2cc(Oc3ccc4c(C(F)(F)F)nn(C)c4c3)ccn2)ccc1C(N)=O [Example 37, 2-methyl-4-(4-((1-methyl-3-(trifluoromethyl)-1H-indazol-6-yl)oxy)pyridin-2-yl)benzamide]	101 to 1000	81			
CCc1cc(-c2cc(Oc3cnc4cnn(C)c4c3)cc(N)n2)ccc1C(N)=O [Example 17, 4-(6-amino-4-((1-methyl-1H-pyrazolo[4,3-b]pyridin-6-yl)oxy)pyridin-2-yl)-2-ethylbenzamide]	101 to 1000	102			
Cc1cc(-c2cc(Oc3cccc4c3cnn4C)ccn2)ccc1C(N)=O [Example 7, 2-methyl-4-(4-((1-methyl-1H-indazol-4-yl)oxy)pyridin-2-yl)benzamide]	1000 to 2000	68			
Cc1nn(C)c2cc(Oc3ccnc(-c4ccc(C(N)=O)c(C(F)(F)F)c4)c3)ccc12 [Example 42, 4-(4-((1,3-dimethyl-1H-indazol-6-yl)oxy)pyridin-2-yl)-2-(trifluoromethyl)benzamide]	101 to 1000	83			
CCc1cc(-c2cc(Oc3cnc4c(c3)c(C)nn4C)cc3nccn23)ccc1C(N)=O [Example 78, 4-(7-((1,3-dimethyl-1H-pyrazolo[3,4-b]pyridin-5-yl)oxy)imidazo[1,2-a]pyridin-5-yl)-2-ethylbenzamide]	101 to 1000	94			
CCc1cc(-c2cc(Oc3ccc4c(c3)c(F)nn4C)ccn2)ccc1C(N)=O [Example 133, 2-ethyl-4-(4-((3-fluoro-1-methyl-1H-indazol-5-yl)oxy)pyridin-2-yl)benzamide]	101 to 1000	141			
CCc1cc(-c2cc(Oc3cnc4c(F)nn(C)c4c3)ccn2)ccc1C(N)=O [Example 131, 2-ethyl-4-(4-((3-fluoro-1-methyl-1H-pyrazolo[4,3-b]pyridin-6-yl)oxy)pyridin-2-yl)benzamide]	101 to 1000	114			
Cc1cc(-c2cc(N)nc(Oc3ccc4nn(C)cc4c3)c2)ccc1C(N)=O [Example 15, 4-(2-amino-6-((2-methyl-2H-indazol-5-yl)oxy)pyridin-4-yl)-2-methylbenzamide]	1000 to 2000	72			
Cc1cc(-c2cc(Oc3ccc4c(c3)CCO4)ccn2)ccc1C(N)=O [Example 67, 4-(4-((2,3-dihydrobenzofuran-5-yl)oxy)pyridin-2-yl)-2-methylbenzamide]	101 to 1000	129			
Cc1cc(-c2cc(Oc3ccc4ncccc4c3)ccn2)ccc1C(N)=O [Example 74, 2-methyl-4-(4-(quinolin-6-yloxy)pyridin-2-yl)benzamide]	101 to 1000	95			
CCc1cc(-c2cc(Oc3cnc4cc(F)ccc4c3)ccn2)ccc1C(N)=O [Example 101, 2-ethyl-4-(4-((7-fluoroquinolin-3-yl)oxy)pyridin-2-yl)benzamide]	101 to 1000	80			
CCc1cc(-c2cc(Oc3cnc4c(c3)c(C(F)(F)F)nn4C)cc(N)n2)ccc1C(N)=O [Example 24, 4-(6-amino-4-((1-methyl-3-(trifluoromethyl)-1H-pyrazolo[3,4-b]pyridin-5-yl)oxy)pyridin-2-yl)-2-ethylbenzamide]	101 to 1000	110			
CCc1cc(-c2cc(Oc3cnc4c(c3)c(C(F)(F)F)nn4C)cc3nccn23)ccc1C(N)=O [Example 77, 2-ethyl-4-(7-((1-methyl-3-(trifluoromethyl)-1H-pyrazolo[3,4-b]pyridin-5-yl)oxy)imidazo[1,2-a]pyridin-5-yl)benzamide]	101 to 1000	75			

SMILES	EC50 [1] [nM]	Emax [2] [%]	EC50 (comparison of position of the nitrogen in the pyridine ring relative to the oxygen linker, read-out: Activity EC50) [nM]	EC50 (Flp-In-CHO cells expressing human GPR52, read-out: average EC50) [nM]	Emax (percentage of Emax of control compound) [%]
CCc1cc(-c2cc(Oc3cnc4c(c3)c(F)nn4C)ccn2)ccc1C(N)=O [Example 130, 2-ethyl-4-(4-((3-fluoro-1-methyl-1H-pyrazolo[3,4-b]pyridin-5-yl)oxy)pyridin-2-yl)benzamide]	101 to 1000	137			
CCc1cc(-c2cc(Oc3cc(F)c4ncc(F)cc4c3)ccn2)ccc1C(N)=O [Example 120, 4-(4-((3,8-difluoroquinolin-6-yl)oxy)pyridin-2-yl)-2-ethylbenzamide]	101 to 1000	155			
Cc1cc(-c2cc(Oc3cnc4c(c3)c(C)nn4C)cc(N)n2)ccc1C(N)=O [Example 23, 4-(6-amino-4-((1,3-dimethyl-1H-pyrazolo[3,4-b]pyridin-5-yl)oxy)pyridin-2-yl)-2-methylbenzamide]	101 to 1000	107			
Cc1cc(-c2cc(Oc3cc(F)c4cnn(C)c4c3)ccn2)ccc1C(N)=O [Example 39, 4-(4-((4-fluoro-1-methyl-1H-indazol-6-yl)oxy)pyridin-2-yl)-2-methylbenzamide]	25 to 100	104			
CCc1cc(-c2cccc(Oc3cnc4c(C)nn(C)c4c3)c2)ccc1C(N)=O [Example 32, 3′-((1,3-dimethyl-1H-pyrazolo[4,3-b]pyridin-6-yl)oxy)-3-ethyl-[1,1′-biphenyl]-4-carboxamide]	101 to 1000	103			
CCn1ncc2ccc(Oc3ccnc(-c4ccc(C(N)=O)c(C)c4)c3)cc21 [Example 44, 4-(4-((1-ethyl-1H-indazol-6-yl)oxy)pyridin-2-yl)-2-methylbenzamide]	101 to 1000	91			
CCc1cc(-c2cc(Oc3ccc4ccncc4c3)ccn2)ccc1C(N)=O [Example 73, 2-ethyl-4-(4-(162yridine162ine-7-yloxy)162yridine-2-yl)benzamide]	101 to 1000	66			
Cc1cc(-c2cc(Oc3cnc4c(c3)C=C(F)CC4)ccn2)ccc1C(N)=O [Example 121, 4-(4-((6-fluoro-7,8-dihydroquinolin-3-yl)oxy)pyridin-2-yl)-2-methylbenzamide]	1000 to 2000	78			
Cc1cc(-c2cc(Oc3ccc4c(c3)c(C)nn4C)ccn2)ccc1C(N)=O [drawing 5]			89		
CCc1cc(-c2cc(Oc3cnc4c(C)nn(C)c4c3)ccn2)ccc1C(N)=O [Example 1, 4-(4-((1,3-dimethyl-1H-pyrazolo[4,3-b]pyridin-6-yl)oxy)pyridin-2-yl)-2-ethylbenzamide]	101 to 1000	106		270	106
CCc1cc(-c2cc(Oc3cc(F)c4cnn(C)c4c3)ccn2)ccc1C(N)=O [Example 36, 2-ethyl-4-(4-((4-fluoro-1-methyl-1H-indazol-6-yl)oxy)pyridin-2-yl)benzamide]	< 25	105			
Cc1cc(-c2cc(Oc3cnc4cc(F)c(F)cc4c3)ccn2)ccc1C(N)=O [Example 114, 4-(4-((6,7-difluoroquinolin-3-yl)oxy)pyridin-2-yl)-2-methylbenzamide]	25 to 100	50			
CCc1cc(-c2cc(Oc3ccc4ncccc4c3F)ccn2)ccc1C(N)=O [Example 106, 2-ethyl-4-(4-((5-fluoroquinolin-6-yl)oxy)pyridin-2-yl)benzamide]	101 to 1000	100			
Cc1cc(-c2cc(Oc3ccc4c(c3)c(C)nn4C)ccn2)ccc1C(N)=O [Example 58, 4-(4-((1,3-dimethyl-1H-indazol-5-yl)oxy)pyridin-2-yl)-2-methylbenzamide]	25 to 100	108			
Cc1cnc2ccc(Oc3ccnc(-c4ccc(C(N)=O)c(C)c4)c3)cc2c1 [Example 108, 2-methyl-4-(4-((3-methylquinolin-6-yl)oxy)pyridin-2-yl)benzamide]	101 to 1000	150			
CCc1cc(-c2cc(Oc3cc(F)c4ncccc4c3)ccn2)ccc1C(N)=O [Example 97, 2-ethyl-4-(4-((8-fluoroquinolin-6-yl)oxy)pyridin-2-yl)benzamide]	101 to 1000	132			
